From ChEMBL document CHEMBL6153174, “Design and Synthesis of Novel Deazapurine DNMT 1 Inhibitors with In Vivo Efficacy in DLBCL” (J Med Chem, 2025)

Experiments:
[1] = tested on: MV4-11; assay: Antiproliferative activity against human MV4-11 cells assessed as inhibition of cell viability measured after 72 hrs by MTT assay; assay type: functional, cell-based; conditions: MV4-11, 72 h
[2] = target: T1, DNA (cytosine-5)-methyltransferase 1 (Homo sapiens, UniProt P26358); assay: Inhibition of DNMT1 (unknown origin) at 5 uM preincubated for 15 mins followed by substrate and [3H-SAM] addition and measured after 60 mins by microbeta analysis relative to control; conditions: time 75.0 min
[3] = target: T2, DNA (cytosine-5)-methyltransferase 3A (Homo sapiens, UniProt Q9Y6K1); assay: Inhibition of DNMT3A (unknown origin) preincubated for 15 mins followed by substrate and [3H-SAM] addition and measured after 60 mins by microbeta analysis
[4] = target: T3, DNA (cytosine-5)-methyltransferase 3B (Homo sapiens, UniProt Q9UBC3); assay: Inhibition of DNMT3B (unknown origin) at 5 uM preincubated for 15 mins followed by substrate and [3H-SAM] addition and measured after 60 mins by microbeta analysis relative to control; conditions: time 75.0 min
[5] = target: T4, Histone-lysine N-methyltransferase EHMT2 (Homo sapiens) (UniProt Q96KQ7); assay: Inhibition of G9a (unknown origin) at 5 uM preincubated for 15 mins followed by substrate and [3H-SAM] addition and measured after 60 mins by microbeta analysis relative to control; conditions: time 75.0 min
T4 sequence (whole entry): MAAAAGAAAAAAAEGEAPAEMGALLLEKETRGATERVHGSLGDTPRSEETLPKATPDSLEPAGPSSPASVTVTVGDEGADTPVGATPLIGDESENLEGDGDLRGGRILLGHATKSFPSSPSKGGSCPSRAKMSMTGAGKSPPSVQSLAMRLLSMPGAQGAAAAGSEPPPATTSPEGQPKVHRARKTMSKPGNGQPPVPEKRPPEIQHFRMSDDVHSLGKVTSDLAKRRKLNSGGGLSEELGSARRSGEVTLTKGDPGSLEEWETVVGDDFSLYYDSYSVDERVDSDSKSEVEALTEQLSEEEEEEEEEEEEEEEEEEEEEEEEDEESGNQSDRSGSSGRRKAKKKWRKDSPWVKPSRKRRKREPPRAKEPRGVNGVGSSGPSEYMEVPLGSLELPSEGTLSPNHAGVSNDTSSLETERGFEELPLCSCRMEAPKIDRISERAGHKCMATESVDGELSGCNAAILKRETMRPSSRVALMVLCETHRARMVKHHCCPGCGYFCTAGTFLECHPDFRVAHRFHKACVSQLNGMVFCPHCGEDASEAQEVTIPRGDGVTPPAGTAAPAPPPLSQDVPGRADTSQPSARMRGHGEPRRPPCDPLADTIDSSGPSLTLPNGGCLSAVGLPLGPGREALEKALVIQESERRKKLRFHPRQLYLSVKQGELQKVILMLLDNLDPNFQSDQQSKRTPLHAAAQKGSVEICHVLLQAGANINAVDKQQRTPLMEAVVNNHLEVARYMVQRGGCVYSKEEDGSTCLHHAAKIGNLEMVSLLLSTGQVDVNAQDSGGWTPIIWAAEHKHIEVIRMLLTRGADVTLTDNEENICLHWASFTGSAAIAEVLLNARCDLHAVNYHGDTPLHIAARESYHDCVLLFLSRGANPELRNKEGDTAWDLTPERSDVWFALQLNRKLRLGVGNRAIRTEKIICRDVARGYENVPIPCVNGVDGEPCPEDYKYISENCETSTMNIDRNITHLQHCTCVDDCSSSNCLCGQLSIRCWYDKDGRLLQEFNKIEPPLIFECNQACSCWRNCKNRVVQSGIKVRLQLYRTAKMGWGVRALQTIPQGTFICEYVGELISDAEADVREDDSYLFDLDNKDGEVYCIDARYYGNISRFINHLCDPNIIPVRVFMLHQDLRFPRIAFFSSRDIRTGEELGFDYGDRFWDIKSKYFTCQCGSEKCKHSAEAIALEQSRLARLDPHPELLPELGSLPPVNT

[6] = target: T1, DNA (cytosine-5)-methyltransferase 1; assay: Inhibition of DNMT1 (unknown origin) preincubated for 15 mins followed by substrate and [3H-SAM] addition and measured after 60 mins by microbeta analysis
[7] = target: T3, DNA (cytosine-5)-methyltransferase 3B; assay: Inhibition of DNMT3B (unknown origin) preincubated for 15 mins followed by substrate and [3H-SAM] addition and measured after 60 mins by microbeta analysis
[8] = tested on: U-937; assay: Antiproliferative activity against human U-937 cells assessed as inhibition of cell viability measured after 72 hrs by MTT assay; assay type: functional, cell-based; conditions: U-937, 72 h
[9] = target: T5, Histone-lysine N-methyltransferase EHMT2 (Homo sapiens, UniProt Q96KQ7); assay: Inhibition of G9a (unknown origin) preincubated for 15 mins followed by substrate and [3H-SAM] addition and measured after 60 mins by microbeta analysis
T5 sequence (Q96KQ7 whole entry): T4 sequence (whole entry)

[10] = target: T2, DNA (cytosine-5)-methyltransferase 3A; assay: Inhibition of DNMT3A (unknown origin) at 5 uM preincubated for 15 mins followed by substrate and [3H-SAM] addition and measured after 60 mins by microbeta analysis relative to control; conditions: time 75.0 min
[11] = target: T1, DNA (cytosine-5)-methyltransferase 1; assay: Inhibition of DNMT1 (unknown origin) at 1 uM preincubated for 15 mins followed by substrate and [3H-SAM] addition and measured after 60 mins by microbeta analysis relative to control; conditions: time 75.0 min
[12] = Cmax in Sprague-Dawley rat at 10 mg/kg, iv measured upto 24 hrs by LC/MS/MS analysis; assay type: ADME, organism-based; conditions: in vivo
[13] = Volume of distribution at steady state in Sprague-Dawley rat at 10 mg/kg, po measured upto 24 hrs by LC/MS/MS analysis; assay type: ADME, organism-based; conditions: in vivo
[14] = Terminal elimination half life in Sprague-Dawley rat at 10 mg/kg, iv measured upto 24 hrs by LC/MS/MS analysis; assay type: ADME, organism-based; conditions: in vivo, read-out: beta t1/2 (converted)
[15] = AUC (0 to t) in Sprague-Dawley rat at 10 mg/kg, iv measured upto 24 hrs by LC/MS/MS analysis; assay type: ADME, organism-based; conditions: in vivo, iv, 10 mg/kg, 24 h
[16] = AUC (0 to t) in Sprague-Dawley rat at 10 mg/kg, po measured upto 24 hrs by LC/MS/MS analysis; assay type: ADME, organism-based; conditions: in vivo, po, 10 mg/kg, 24 h
[17] = Clearance in Sprague-Dawley rat at 10 mg/kg, iv measured upto 24 hrs by LC/MS/MS analysis; assay type: ADME, organism-based; conditions: in vivo
[18] = Oral bioavailability in Sprague-Dawley rat at 10 mg/kg measured upto 24 hrs by LC/MS/MS analysis; assay type: ADME, organism-based; conditions: in vivo, po, 10 mg/kg, 24 h
[19] = Volume of distribution at steady state in Sprague-Dawley rat at 10 mg/kg, iv measured upto 24 hrs by LC/MS/MS analysis; assay type: ADME, organism-based; conditions: in vivo, read-out: Vdss
[20] = Apparent clearance during terminal phase in Sprague-Dawley rat at 10 mg/kg, po measured upto 24 hrs by LC/MS/MS analysis; assay type: ADME, organism-based; conditions: in vivo, read-out: CLz/F (converted)
[21] = Terminal elimination half life in Sprague-Dawley rat at 10 mg/kg, po measured upto 24 hrs by LC/MS/MS analysis; assay type: ADME, organism-based; conditions: in vivo, read-out: beta t1/2 (converted)
[22] = Cmax in Sprague-Dawley rat at 10 mg/kg, po measured upto 24 hrs by LC/MS/MS analysis; assay type: ADME, organism-based; conditions: in vivo
[23] = tested on: THP-1; assay: Antiproliferative activity against human THP-1 cells assessed as inhibition of cell viability measured after 72 hrs by MTT assay; assay type: functional, cell-based; conditions: THP-1, 72 h
[24] = tested on: NCI-H1299; assay: Antiproliferative activity against human NCI-H1299 cells assessed as inhibition of cell viability measured after 72 hrs by MTT assay; assay type: functional, cell-based; conditions: NCI-H1299, 72 h
[25] = tested on: HepG2; assay: Antiproliferative activity against human HepG2 cells assessed as inhibition of cell viability measured after 72 hrs by MTT assay; assay type: functional, cell-based; conditions: HepG2, 72 h
[26] = tested on: MOLM-13; assay: Antiproliferative activity against human MOLM-13 cells assessed as inhibition of cell viability measured after 72 hrs by MTT assay; assay type: functional, cell-based; conditions: MOLM-13, 72 h
[27] = tested on: HeLa; assay: Antiproliferative activity against human HeLa cells assessed as inhibition of cell viability measured after 72 hrs by MTT assay; assay type: functional, cell-based
[28] = tested on: A549; assay: Antiproliferative activity against human A549 cells assessed as inhibition of cell viability measured after 72 hrs by MTT assay; assay type: functional, cell-based; conditions: A549, 72 h
[29] = tested on: HT-29; assay: Antiproliferative activity against human HT-29 cells assessed as inhibition of cell viability measured after 72 hrs by MTT assay; assay type: functional, cell-based; conditions: HT-29, 72 h
[30] = tested on: HCT-116; assay: Antiproliferative activity against human HCT-116 cells assessed as inhibition of cell viability measured after 72 hrs by MTT assay; assay type: functional, cell-based; conditions: HCT-116, 72 h
[31] = tested on: MDA-MB-231; assay: Antiproliferative activity against human MDA-MB-231 cells assessed as inhibition of cell viability measured after 72 hrs by MTT assay; assay type: functional, cell-based; conditions: MDA-MB-231, 72 h
[32] = tested on: RPMI-8226; assay: Antiproliferative activity against human RPMI-8226 cells assessed as inhibition of cell viability measured after 72 hrs by MTT assay; assay type: functional, cell-based; conditions: RPMI-8226, 72 h

T2 sequence (Q9Y6K1 whole entry, looked up): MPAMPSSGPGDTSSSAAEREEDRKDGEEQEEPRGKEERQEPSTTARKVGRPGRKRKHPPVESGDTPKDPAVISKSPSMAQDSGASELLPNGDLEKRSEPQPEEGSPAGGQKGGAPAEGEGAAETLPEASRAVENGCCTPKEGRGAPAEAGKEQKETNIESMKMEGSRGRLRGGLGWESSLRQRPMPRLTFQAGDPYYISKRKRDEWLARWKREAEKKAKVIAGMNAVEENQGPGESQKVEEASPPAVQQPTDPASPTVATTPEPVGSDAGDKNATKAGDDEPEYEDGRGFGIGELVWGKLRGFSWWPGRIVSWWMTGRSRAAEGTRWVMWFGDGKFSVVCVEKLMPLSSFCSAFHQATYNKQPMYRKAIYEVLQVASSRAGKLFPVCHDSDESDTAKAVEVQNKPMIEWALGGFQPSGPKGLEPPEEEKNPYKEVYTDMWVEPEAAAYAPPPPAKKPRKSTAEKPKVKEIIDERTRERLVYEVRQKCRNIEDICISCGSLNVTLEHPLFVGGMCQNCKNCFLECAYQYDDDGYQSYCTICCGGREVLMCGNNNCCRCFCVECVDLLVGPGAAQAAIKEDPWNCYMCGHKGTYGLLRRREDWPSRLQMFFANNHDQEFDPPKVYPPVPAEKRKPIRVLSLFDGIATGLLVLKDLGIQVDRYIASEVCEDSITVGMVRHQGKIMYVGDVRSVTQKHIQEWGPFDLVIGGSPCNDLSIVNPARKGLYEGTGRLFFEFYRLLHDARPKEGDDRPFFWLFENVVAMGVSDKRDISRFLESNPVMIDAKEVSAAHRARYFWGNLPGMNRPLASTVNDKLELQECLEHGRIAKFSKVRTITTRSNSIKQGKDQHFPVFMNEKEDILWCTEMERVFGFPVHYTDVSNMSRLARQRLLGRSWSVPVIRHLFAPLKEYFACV
T1 sequence (P26358 whole entry): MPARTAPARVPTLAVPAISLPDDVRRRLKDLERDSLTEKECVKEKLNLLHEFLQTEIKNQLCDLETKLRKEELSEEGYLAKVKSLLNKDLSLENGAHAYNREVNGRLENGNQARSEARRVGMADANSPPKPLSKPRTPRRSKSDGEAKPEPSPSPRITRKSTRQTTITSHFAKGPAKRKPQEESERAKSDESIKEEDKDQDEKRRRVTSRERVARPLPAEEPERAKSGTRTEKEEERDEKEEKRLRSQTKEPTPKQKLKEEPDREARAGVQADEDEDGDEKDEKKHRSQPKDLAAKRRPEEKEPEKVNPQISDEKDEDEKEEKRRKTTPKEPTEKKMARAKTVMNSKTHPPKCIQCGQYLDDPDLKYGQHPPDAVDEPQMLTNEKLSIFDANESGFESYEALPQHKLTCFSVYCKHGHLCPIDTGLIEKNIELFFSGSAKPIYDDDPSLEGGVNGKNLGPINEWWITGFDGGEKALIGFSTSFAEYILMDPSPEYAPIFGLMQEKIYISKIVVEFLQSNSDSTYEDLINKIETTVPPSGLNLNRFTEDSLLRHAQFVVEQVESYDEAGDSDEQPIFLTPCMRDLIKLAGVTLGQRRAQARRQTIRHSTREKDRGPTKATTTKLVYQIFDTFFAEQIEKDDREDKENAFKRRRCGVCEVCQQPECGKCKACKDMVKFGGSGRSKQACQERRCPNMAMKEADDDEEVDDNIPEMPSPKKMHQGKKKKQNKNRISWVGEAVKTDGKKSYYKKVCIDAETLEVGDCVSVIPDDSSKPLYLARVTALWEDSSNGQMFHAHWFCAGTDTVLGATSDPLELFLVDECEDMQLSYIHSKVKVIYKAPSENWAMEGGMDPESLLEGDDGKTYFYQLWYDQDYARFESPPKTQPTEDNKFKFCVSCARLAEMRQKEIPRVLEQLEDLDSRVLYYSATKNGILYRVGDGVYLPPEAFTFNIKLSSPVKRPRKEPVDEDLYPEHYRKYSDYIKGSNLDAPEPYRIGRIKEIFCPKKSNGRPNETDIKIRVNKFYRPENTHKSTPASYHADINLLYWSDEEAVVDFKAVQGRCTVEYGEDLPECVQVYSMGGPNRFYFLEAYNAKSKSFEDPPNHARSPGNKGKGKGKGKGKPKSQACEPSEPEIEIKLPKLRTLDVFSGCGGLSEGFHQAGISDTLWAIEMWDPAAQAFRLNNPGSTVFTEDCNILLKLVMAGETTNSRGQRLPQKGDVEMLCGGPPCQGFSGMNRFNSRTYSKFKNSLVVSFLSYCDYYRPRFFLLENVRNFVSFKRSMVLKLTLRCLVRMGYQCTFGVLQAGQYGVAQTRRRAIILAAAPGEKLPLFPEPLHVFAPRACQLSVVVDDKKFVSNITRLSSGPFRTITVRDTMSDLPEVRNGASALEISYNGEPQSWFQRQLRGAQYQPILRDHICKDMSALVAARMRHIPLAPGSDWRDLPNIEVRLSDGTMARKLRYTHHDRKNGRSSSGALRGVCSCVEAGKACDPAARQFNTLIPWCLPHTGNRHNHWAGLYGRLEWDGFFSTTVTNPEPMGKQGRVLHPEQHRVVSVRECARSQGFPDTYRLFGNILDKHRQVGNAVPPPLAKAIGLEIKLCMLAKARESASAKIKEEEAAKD

Structure (SMILES) | IC50 [1] | inhibition [2] | IC50 [3] | inhibition [4] | inhibition [5] | IC50 [6] | IC50 [7] | IC50 [8] | IC50 [9] | inhibition [10] | inhibition [11] | further results
CN1CCC(Nc2nc(-c3ccncc3)nc3c2ccn3CCCN2CCCC2)CC1 | 7.7 µM | 69% | > 20 µM | 3.5% | 1.3% | 3.94 µM | > 20 µM | 10.1 µM | > 20 µM | 8.5% |  | 
COc1ccc(-c2nc(NC3CCN(C)CC3)c3ccn(CCCN4CCCC4)c3n2)cn1 | 10.2 µM | 49% | 18.3 µM | 1.2% | 1% | 1.9 µM | > 20 µM | 4.53 µM | > 20 µM | 15% |  | 
CN1CCN(c2cc(NCC3CCN(C(=O)C(C)(C)C)CC3)c3cnn(CCCN4CCOCC4)c3c2)CC1 | 24.4 µM |  |  |  |  |  |  |  |  |  | 41% | 
CN1CCC(Nc2nc(-c3ccc(N)nc3)nc3c2ccn3CCCN2CCCC2)CC1 | 18.3 µM | 52% | 16.7 µM | 0.6% | -1.1% | 1.62 µM | > 20 µM | 26.8 µM | > 20 µM | 17% |  | 
CN1CCC(Nc2nc(-c3ccc(C#N)c(F)c3)nc3c2ccn3CCCN2CCCC2)CC1 | 2.05 µM | 82% | 10.9 µM | 2.3% | -1.3% | 1.22 µM | 12.4 µM | 1.2 µM | > 20 µM | 11% |  | Cmax [12]: 698 ng/mL; Vdss [13]: 673.5 L/kg; half-life [14]: 12.1 h; AUCt [15]: 2775.5 ng·h/mL; AUCt [16]: 302.6 ng·h/mL; clearance [17]: 21.7 mL/min/kg; F [18]: 5.4%; Vd [19]: 22.4 L/kg; CL/F [20]: 843 mL/min/kg; half-life [21]: 12.3 h; Cmax [22]: 29.3 ng/mL
Cc1cc(Nc2ccc(NC(=O)c3ccc(Nc4ccnc5ccccc45)cc3)cc2)nc(N)n1 | 0.98 µM | 3.4% |  |  |  |  | 1.91 µM | 4.12 µM |  |  | 77% | IC50 [23]: 2.47 µM; IC50 [24]: 12.2 µM; IC50 [25]: 11.6 µM; IC50 [26]: 1.19 µM; IC50 [27]: 21.6 µM; IC50 [28]: 9.5 µM; IC50 [29]: 0.49 µM; IC50 [30]: 0.82 µM; IC50 [31]: 5.39 µM; IC50 [32]: 1.34 µM
